We go through eight compounds from ChEMBL document CHEMBL1139041, “Design and synthesis of 2'-anilino-4,4'-bipyridines as selective inhibitors of c-Jun N-terminal kinase-3” (Bioorg Med Chem Lett, 2006).

Data set [1] is described as follows: Solubility in phosphate buffer at pH 7.4. The data set is classed as physicochemical.
Data set [2] is described as follows: Intrinsic clearance in rat microsomes. The note with it: liver microsomes. The data set is classed as ADME, Microsome.
Data set [3] in a line: Permeability across Caco-2 cell membrane. The data set is classed as ADME, cell-based. The conditions noted are these: human, read-out: permeability. In general terms: Caco-2 monolayers are a common model of the intestinal barrier.
Data set [4] is described as follows: Bioavailability in rat. Format: ADME, organism-based. The conditions noted are these: in vivo.
Data set [5] is described as follows: Clearance in rat. Format: ADME, organism-based. The conditions noted are these: in vivo.
Data set [6] in a line: Half life in po dosed rat. The note with it: in vivo. The data set is classed as ADME, organism-based.

≈ marks a conversion by molar mass, not a printed value.

Compound `COC1CCC(C(=O)Nc2cc(-c3ccnc(Nc4ccccc4)c3)ccn2)CC1` (configuration not stated) showed a solubility in data set [1] of 8 µM (≈ 3.22 µg/mL).

With `O=C(Nc1cc(-c2ccnc(Nc3ccccc3)c2)ccn1)C1CCOC1` (configuration not stated), in data set [2], the microsomal CLint came out at 12 µL/min/mg. Besides, the Papp in data set [3] was found to be 29.9 ×10⁻⁶ cm/s. The compound further displayed a bioavailability in data set [4] of 16%. Further, the clearance in data set [5] worked out at 30 mL/min/kg. The compound also gave a half-life in data set [6] of 4.7 h.

As for `CC(=O)N1CCC(C(=O)Nc2cc(-c3ccnc(Nc4ccccc4)c3)ccn2)CC1`, in data set [1], the concentration in solution (solubility) came to 94 µM (≈ 39.1 µg/mL).

In data set [1], `Cc1cnc(C(=O)Nc2cc(-c3ccnc(Nc4ccccc4)c3)ccn2)cn1` had a solubility of 40 µM (≈ 15.3 µg/mL).

`Fc1ccc(Nc2cc(-c3ccnc(Nc4ccc(F)cc4)c3)ccn2)cc1` had a solubility in data set [1] below 0.1 µM.

For the compound `COCCC(=O)Nc1cc(-c2ccnc(Nc3ccccc3)c2)ccn1`, in data set [1], the concentration in solution (solubility) was 20 µM (≈ 6.97 µg/mL).

In data set [1], `O=C(Nc1cc(-c2ccnc(Nc3ccccc3)c2)ccn1)c1cccnc1` registered a solubility of 17 µM (≈ 6.25 µg/mL).

As to `O=C(Nc1cc(-c2ccnc(Nc3ccccc3)c2)ccn1)c1ccco1`, the concentration in solution in data set [1] (solubility) was 4 µM (≈ 1.43 µg/mL).

In general, solubility refers to the dissolved amount per volume that the medium holds. Read a low solubility as a poorly soluble substance. As usually defined, the microsomal CLint is the capacity of the preparation to metabolise the compound, expressed as a volume cleared per time. As a reminder, the bioavailability is dose-corrected exposure relative to a reference, in per cent. The clearance is a measure of how efficiently the substance is removed, as volume per time. The term half-life denotes the time needed for the level to fall by half in the phase considered. A high value points to slow loss.
